Measured values published in patent US20020137779A1, “Use of L-2-oxothiazolidine-4-carboxylic acid for the treatment of type 2 diabetes” (Advanced Biochemicals Inc., priority 2001, published 2002).

Experiments:
[1] = system: pancreatic islet cells; experiment: insulin secretion of pancreatic islets isolated from mice, radioimmunoassay; type: cell-based, C57BL mouse
Experimental: First step; After isolating pancreatic islets from a C57BL mouse according to Lacy and Kotianovsky(Diabetes, 16, 35-39, 1967), the islets were incubated for 60 min. at 37°C. with 250 […] of L-2-oxothiazolidine-4-carboxylic acid alone or together with 2.8-25 mM of glucose, and insulin from the supernatant was measured by radioimmunoassay,
The isolation of pancreatic islets from a C57BL mouse(weight; 20 g, Samtako, Daejeon, Korea) was performed according to the method of Lacy and Kotianovsky et al.(Diabetes, 16; 35-39, 1967). The pancreas of ether-anesthetized mouse was distended by infusion with Hank's balanced salt solution(HBSS, GIBCO, USA) containing 1 mg/ml of collagenase (Sigma, USA) via common bile duct and isolated. The isolated pancreas was digested for 20 min at 37 C while stirring homogeneously. After removing acinar cells by washing with HBSS, pancreatic islets of similar size were collected under dissecting microscope. 2.8-25 mM of glucose(Sigma, USA) alone or together with 250 ^μM-[…] of L-2-oxothiazolidine-4-carboxylic acid were administered to the isolated 10 pancreatic islets in 100 ^μl of Krebs Ringer bicarbonate(Sigma, USA) buffer solution containing 10 mM of Hepes, the islets were incubated for 60 min. at 37 °C., and insulin in the supernatant, from which the pancreatic β-islet cells was removed, was measured. […]

[2] = system: type 2 diabetes mice (C57BL/KsJ-db/db Jcl); experiment: blood glucose levels after glucose intake, single oral administration (Example 3); type: in vivo, mouse; settings: for blood glucose level / decrease of blood glucose level vs control group: 30 min after glucose intake
Experimental: (§1) Third step; Determining the abilities of lowering blood glucose level and increasing insulin secretion ability following glucose loading, by administering a single dose of 8-80 mg/kg of L-2-oxothiazolidine-4-carboxylic acid to a type 2 diabetes mouse, Fourth step; Examining the effect of long term administration of L-2-oxothiazolidine-4-carboxylic acid on lowering blood glucose levels,
(§2) Under the same breeding condition as in EXAMPLE 2, no feed but water was given to 7 week old type 2 diabetes mice (C57BL/KsJ-db/db Jel, Clea, Japan) for 13 hours. 0.2 ml of PBS was orally given to the control group(5 mice) using feeding needle, and 8-80 mg/kg of L-2-oxothiazolidine-4-carboxylic acid dissolved in 0.2 ml of PBS was orally administered to the experimental group(5 mice). After 5 hours of drug administration, 1 g/kg of glucose (Sigma, USA) was intraperitoneally injected and the mice were maintained for 30 to 120 minutes. The blood glucose levels of type 2 diabetes mice at various time points were measured by the glucose oxidase method using a glucose analyzer(One-touch Basic, Lifescan, USA), and serum insulin levels were determined using a radioimmunoassay, as described in EXAMPLE 2.

[3] = system: type 2 diabetes mice (C57BL/KsJ-db/db Jcl); experiment: serum insulin levels after glucose intake, single oral administration (Example 3); type: in vivo, mouse; settings: for concentration of insulin / increase of insulin concentration vs control group: 30 min after glucose intake
Experimental: as §1, §2

[4] = body weight during four weeks of oral administration (Example 4); type: in vivo, mouse; settings: 40-80 mg/kg orally for four weeks; measured at one, two and four week points
Experimental: Seven week old type 2 diabetes mice were maintained as in EXAMPLE 2. 0.2 ml of PBS (pH 7.4) was given to a control group twice a day for 1-4 weeks, and 40-80 mg/kg of L-2-oxothiazolidine-4-carboxylic acid dissolved in 0.2 ml of PBS of which pH was adjusted to 7.4 with 3 N NaOH(Junsei, Japan) was orally administered to an experimental group.

[5] = system: pancreatic islets of type 2 diabetes mice; experiment: morphological examination of pancreatic islets, hematoxylin-eosine and anti-insulin immunohistochemistry (Example 6); type: in vivo, mouse; settings: 80 mg/kg for four weeks, 120 min after glucose 1 g/kg i.p.
Experimental: Sixth step: Identifying the ability of insulin secretion of the control group and the type 2 diabetes mouse to which 80 mg/kg of L-2-oxothiazolidine-4-carboxylic acid for 4 weeks determined by immunohistochemical staining with anti-insulin antibody.
L-2-oxothiazolidine-4-carboxylic acid or PBS alone was administered to 3 mice in each group, 1 g/kg of glucose was intraperitoneally injected in the fasted state, and they were sacrificed by cervical dislocation after 120 min. of the injection. Immediately, the abdominal region was incised, pancreases were then removed from the mice and fixed more than 12 hours in a cold solution of 4% paraformaldehyde in PBS(pH 7.4, Sigma, USA). Pancreas separated free of intestine and adipose tissue(fatty tissue), rinsed three times with fresh fixing solution, and the fixed tissues were processed routinely for paraffin embedding. The tissue sections were cut off at 5 ^μm interval using microtome(Sandon, Germany) from the paraffin embedding, and adhered to a slide coated with poly-L-lysine(Sigma, USA) for immunohistochemistry.
To remove the paraffin from the slides on which pancreatic tissue was coated, the slides were repeatedly treated with xylene for 5 min., and the tissue sections were rehydrated with a series of 100-70% alcohol and incubated with PBS(pH 7.4) for 5 minutes. […]

[6] = system: mice; settings: mice pre-treated with L-2-oxothiazolidine-4-carboxylic acid, acetaminophen 9.5 mmol/kg oral; cited from earlier work

## O=C1NC(C(=O)O)CS1 [OTC, L-2-oxothiazolidine-4-carboxylic acid]
[1]; 500 μM−2 mM OTC in the presence of 17.5 mM glucose, 60 min at 37°C
  insulin secretion of pancreatic islet cells: increased insulin secretion in a dose-dependent manner
[1]; OTC 500 μM-2 mM
  glucose dependence of the stimulation of insulin secretion from pancreatic islets: the presence of glucose is required for the stimulation of insulin secretion
[2]; 40 mg/kg single oral dose
  blood glucose level: 295 ± 8.5 mg/dL
  decrease of blood glucose level vs control group: 34.27%
[2]; 80 mg/kg single oral dose
  blood glucose level: 269 ± 6.85 mg/dL
  decrease of blood glucose level vs control group: 40.01%
[2]; 40-80 mg/kg single oral dose
  duration of the lowering effect of blood glucose levels after the intake of glucose: about 60 min
[3]; 40 mg/kg single oral dose
  concentration of insulin: 1,650±103 pmol/1
  increase of insulin concentration vs control group: 26.5%
[3]; 80 mg/kg single oral dose
  concentration of insulin: 1,760±94 pmol/l
  increase of insulin concentration vs control group: 35.4%
[3]; 40-80 mg/kg single oral dose
  duration of the improvement of insulin secretion after the intake of glucose: about 120 min
[4]
  weight of the mice: no weight difference
[5]
  densities of the capsule and the β-cells in the capsule, hematoxylin-eosine staining: high
  positive response to anti-insulin antibody of pancreatic β-islet cells: distinctly increased
[6]
  mortality rate: less than 10%
